What was measured:
[1] = tested on: isolated rat aorta; test: Test A: activity against contractions induced by low K⁺ concentrations (20 mM K⁺) in the isolated rat aorta; assay type: cell-based; settings: concentration reducing the 20 mM K⁺-induced contraction by 90%; rat thoracic aorta strips denuded of endothelium; read-out: Activity Test A EC₉₀
Description: The test methods used were adapted from those described by Winslow et al [Eur.J.Pharmacol., 131, 219-228 (1986)] and Karaki [J.Pharmacol. Methods, 18, 1-21 (1987)] for differentiating vaso-relaxant activity.
Test A : Activity against contractions induced by low K⁺ concentrations in the isolated rat aorta
Thoracic aorta was removed from rats and transverse strips, denuded of endothelium, were suspended in a bath containing Krebs solution. The tension was recorded and a contraction induced by addition of 20 mM K⁺ (potassium ion) to the bathing solution. The test compound was added to the bath as a solution in increasing cumulative concentration. The concentration in the bathing solution of the test compound which reduced the K⁺-induced contraction by 90% was determined and expressed in µM as the effective concentration (EC₉₀), given in Table I.

[2] = tested on: blood pressure; test: Blood pressure in the anaesthetised guinea pig (same experiment as bronchospasm test); assay type: in vivo; settings: nebulised aerosol for 1 minute, control 42
Description: (§1) In in vivo tests in the anaesthetised guinea pig, performed according to the method of Dixon W.E. and Brodie T.G., J. Physiol 29, pp 97-173 (1903), Compound BD affected histamine-induced bronchospasm and blood pressure as follows:-
(§2) A nebulised aerosol generated from an aqueous solution having a given concentration was administered for 1 minute to the anaesthetised guinea pigs.

[3] = tested on: histamine-induced bronchospasm; test: Histamine-induced bronchospasm in the anaesthetised guinea pig (method of Dixon and Brodie), nebulised aerosol; assay type: in vivo; settings: nebulised aerosol for 1 minute, control 80
Description: as §1, §2

Compound	EC90 [1] [nM]	further results
CNC(=S)C1(c2cccnc2)CCCCC1=O (racemic) [Compound A, (±)-N-methyl-2-oxo-1-(3-pyridyl)cyclohexanecarbothioamide]	800	–
CNC(=S)C1(c2cnc3ccccc3c2)CCCCC1=O (racemic) [Compound B, (±)-N-methyl-2-oxo-1-(3-quinolinyl)cyclohexanecarbothioamide]	70	–
CNC(=S)C1(c2cccnc2)CCC/C1=N\OCc1ccc(F)cc1 (racemic) [Compound BD, (±)-anti-N-methyl-2-(4-fluorobenzyloxyimino)-1-(3-pyridyl)cyclopentanecarbothioamide]	–	B.P. ([2]; 100µg/ml aqueous solution): 49 mmHg; B.P. ([2]; 300µg/ml aqueous solution): 43 mmHg; B.P. ([2]; 1000µg/ml aqueous solution): 40 mmHg; % maximum bronchospasm ([3]; 100µg/ml aqueous solution): 76%; % maximum bronchospasm ([3]; 300µg/ml aqueous solution): 46%; % maximum bronchospasm ([3]; 1000µg/ml aqueous solution): 22%
CNC(=S)C1(c2cccnc2)CCCC/C1=N\OC (racemic) [Compound G, (±)-anti-N-methyl-2-methoxyimino-1-(3-pyridyl)cyclohexanecarbothioamide]	300	–
CNC(=S)C1(c2cccnc2)CCCC/C1=N\OCc1ccccc1 (racemic) [Compound H, (±)-anti-N-methyl-2-benzyloxyimino-1-(3-pyridyl)cyclohexanecarbothioamide]	10	–
CNC(=S)C1(c2ccc(Cl)nc2)CCCCC1=O (racemic) [Compound R, (±)-N-methyl-2-oxo-1-(6-chloropyrid-3-yl)cyclohexanecarbothioamide]	240	–
CNC(=S)C1(c2cncc(Br)c2)CCCCC1=O (racemic) [Compound S, (±)-N-methyl-2-oxo-1-(5-bromopyrid-3-yl)cyclohexanecarbothioamide]	400	–
CCNC(=S)C1(c2cccnc2)CCCCC1=O (racemic) [T, (±)-N-ethyl-2-oxo-1-(3-pyridyl)cyclohexanecarbothioamide]	300	–
CNC(=S)[C@]1(c2cnc3ccccc3c2)CCCC/C1=N\N1CCC[C@H]1COC [Compound J, (2S)-anti-2-(methoxymethyl)-1-[2′-(3-quinolinyl)-2′-methylthiocarbamoylcyclohexylideneamino]pyrrolidine]	300	–
(±)-cis-N-methyl-2-hydroxy-1-(3-pyridyl)cyclohexanecarbothioamide	24000	–
(±)-trans-N-methyl-2-hydroxy-1-(3-pyridyl)cyclohexanecarbothioamide	7500	–

Source: EP0321274A1, “Derivatives of thioformamide” (RHONE POULENC RORER LIMITED, priority 1987, dated 1989)
